# According to patent publication US20250144094A1 (Erasca, Inc., priority 2021, published 2025):
# Target: Recombinant human ULK1 (1-649) (Homo sapiens (Human), UniProt O75385)
# Test: ULK1 ADP Glo kinase activity assay, new method (ULKtide peptide substrate)
# Conditions: 25° C., 40 minutes, read-out: ULK1 biochemical IC50
# How it was run: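 GST-tagged human ULK1 (1-649) from Sf9 cells was reacted with ULKtide peptide and ATP for 40 min at 25 °C across 12-point compound dilutions from 10 μM. ADP formed was quantified by ADP-Glo luminescence; IC50 came from four-parameter fits relative to DMSO controls.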
# Chain of Recombinant human ULK1 (1-649) (O75385 1-649): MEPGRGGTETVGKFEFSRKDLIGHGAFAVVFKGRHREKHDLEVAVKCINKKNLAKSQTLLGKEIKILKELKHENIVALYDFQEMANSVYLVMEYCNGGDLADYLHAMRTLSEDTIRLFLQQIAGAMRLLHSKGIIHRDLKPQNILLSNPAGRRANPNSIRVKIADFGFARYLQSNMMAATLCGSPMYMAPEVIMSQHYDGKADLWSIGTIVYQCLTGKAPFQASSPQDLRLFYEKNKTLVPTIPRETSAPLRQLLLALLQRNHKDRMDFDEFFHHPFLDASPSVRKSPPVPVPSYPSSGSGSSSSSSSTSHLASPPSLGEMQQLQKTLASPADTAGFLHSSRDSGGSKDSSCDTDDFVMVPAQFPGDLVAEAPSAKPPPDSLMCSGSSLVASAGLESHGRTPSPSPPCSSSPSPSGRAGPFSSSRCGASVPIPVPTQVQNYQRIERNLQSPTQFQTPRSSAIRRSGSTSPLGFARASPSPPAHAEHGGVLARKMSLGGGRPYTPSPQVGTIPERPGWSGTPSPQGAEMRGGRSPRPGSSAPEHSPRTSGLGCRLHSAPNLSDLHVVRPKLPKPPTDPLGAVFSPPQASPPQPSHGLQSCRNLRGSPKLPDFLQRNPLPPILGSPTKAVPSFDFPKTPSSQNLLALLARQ
row,Compound,IC50
1,"CC(C)c1cc2c(cc1Nc1ncc(C(F)(F)F)c(-c3cc4c(s3)C(=O)N(C3CC3)CCS4(=O)=O)n1)CCN(CC1COC1)C2 [Example 269, 4-cyclopropyl-7-(2-((7-isopropyl-2-(oxetan-3-ylmethyl)-1,2,3,4-tetrahydroisoquinolin-6-yl)amino)-5-(trifluoromethyl)pyrimidin-4-yl)-3,4-dihydrothieno[2,3-f][1,4]thiazepin-5(2H)-one 1,1-dioxide]",≤ 5 nM
2,"O=C1c2sc(-c3nc(Nc4cc5c(cc4C4CC4)CCNC5)ncc3C(F)(F)F)cc2S(=O)(=O)CCN1C1COC1 [Example 270, 7-(2-((6-cyclopropyl-1,2,3,4-tetrahydroisoquinolin-7-yl)amino)-5-(trifluoromethyl)pyrimidin-4-yl)-4-(oxetan-3-yl)-3,4-dihydrothieno[2,3-f][1,4]thiazepin-5(2H)-one 1,1-dioxide]",≤ 5 nM
3,"CCc1cc(N2CCN(CC)CC2)ccc1Nc1ncc(C(F)(F)F)c(-c2cc3c(s2)C(=O)N(C2CC2)CCS3(=O)=O)n1 [Example 271, 4-cyclopropyl-7-(2-((2-ethyl-4-(4-ethylpiperazin-1-yl)phenyl)amino)-5-(trifluoromethyl)pyrimidin-4-yl)-3,4-dihydrothieno[2,3-f][1,4]thiazepin-5(2H)-one 1,1-dioxide]",≤ 5 nM
4,"CCc1cc(N2CCN(C(C)C)CC2)ccc1Nc1ncc(C(F)(F)F)c(-c2cc3c(s2)C(=O)N(C2CC2)CCS3(=O)=O)n1 [Example 272, 4-cyclopropyl-7-(2-((2-ethyl-4-(4-isopropylpiperazin-1-yl)phenyl)amino)-5-(trifluoromethyl)pyrimidin-4-yl)-3,4-dihydrothieno[2,3-f][1,4]thiazepin-5(2H)-one 1,1-dioxide]",≤ 5 nM
5,"O=C1c2sc(-c3nc(Nc4cc5c(cc4OC(F)(F)F)CNCC5)ncc3C(F)(F)F)cc2S(=O)(=O)CCN1C1CC1 [Example 273, 4-cyclopropyl-7-(2-((7-(trifluoromethoxy)-1,2,3,4-tetrahydroisoquinolin-6-yl)amino)-5-(trifluoromethyl)pyrimidin-4-yl)-3,4-dihydrothieno[2,3-f][1,4]thiazepin-5(2H)-one 1,1-dioxide]",≤ 5 nM
6,"CCc1cc2c(cc1Nc1ncc(C(F)(F)F)c(-c3cc4c(s3)C(=O)N(C3COC3)CCS4(=O)=O)n1)CCN(CC1CC1)C2 [Example 274, 7-(2-((2-(cyclopropylmethyl)-7-ethyl-1,2,3,4-tetrahydroisoquinolin-6-yl)amino)-5-(trifluoromethyl)pyrimidin-4-yl)-4-(oxetan-3-yl)-3,4-dihydrothieno[2,3-f][1,4]thiazepin-5(2H)-one 1,1-dioxide]",≤ 5 nM
7,"CCc1cc2c(cc1Nc1ncc(C(F)(F)F)c(-c3cc4c(s3)C(=O)N(C3COC3)CCS4(=O)=O)n1)CCN(CC1COC1)C2 [Example 275, 7-(2-((7-ethyl-2-(oxetan-3-ylmethyl)-1,2,3,4-tetrahydroisoquinolin-6-yl)amino)-5-(trifluoromethyl)pyrimidin-4-yl)-4-(oxetan-3-yl)-3,4-dihydrothieno[2,3-f][1,4]thiazepin-5(2H)-one 1,1-dioxide]",≤ 5 nM
8,"N#CCN1CCc2cc(Nc3ncc(C(F)(F)F)c(-c4cc5c(s4)C(=O)N(C4CC4)CCS5(=O)=O)n3)c(C3CC3)cc2C1 [Example 276, 2-(7-cyclopropyl-6-((4-(4-cyclopropyl-1,1-dioxido-5-oxo-2,3,4,5-tetrahydrothieno[2,3-f][1,4]thiazepin-7-yl)-5-(trifluoromethyl)pyrimidin-2-yl)amino)-3,4-dihydroisoquinolin-2(1H)-yl)acetonitrile]",10 to 50 nM
9,"CCc1cc2c(cc1Nc1ncc(C(F)(F)F)c(-c3cc4c(s3)C(=O)N(C3CC3)CCS4(=O)=O)n1)CCN(CC1COC1)C2 [Example 277, 4-cyclopropyl-7-(2-((7-ethyl-2-(oxetan-3-ylmethyl)-1,2,3,4-tetrahydroisoquinolin-6-yl)amino)-5-(trifluoromethyl)pyrimidin-4-yl)-3,4-dihydrothieno[2,3-f][1,4]thiazepin-5(2H)-one 1,1-dioxide]",≤ 5 nM
